Measured values reported in patent US9115073B2, “1,3-diphenylpropane derivatives, preparations and uses thereof” (GENFIT, priority 2011, dated 2015).

Key:
[1] = target: T1, hPPARalpha (Homo sapiens, UniProt Q07869); assay: Gal4-hPPARalpha transactivation assay in COS-7 cells (luciferase); type: cell-based
T1 construct: Gal4-hPPARα(LBD); Gal4 (fusion partner); expressed in transfected cells; host or cells: COS-7 (monkey kidney)
T1 sequence (Q07869 239-466 limits assumed): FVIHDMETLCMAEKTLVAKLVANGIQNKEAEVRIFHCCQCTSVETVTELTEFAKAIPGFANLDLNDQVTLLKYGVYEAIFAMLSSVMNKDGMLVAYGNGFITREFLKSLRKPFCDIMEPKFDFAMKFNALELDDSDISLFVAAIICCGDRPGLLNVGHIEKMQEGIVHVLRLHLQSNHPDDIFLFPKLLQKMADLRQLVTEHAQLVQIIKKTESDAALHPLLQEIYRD
Method in brief: (§1)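 COS-7 cells transiently co-transfected with Gal4-hPPAR chimeras and a Gal4(RE)_TkpGL3 luciferase reporter (1/50 ratio) were seeded at 20,000 cells/well for 4 h, then treated in 2% lipid-free synthetic serum medium (0.1% DMSO). EC50 and Hill slope came from fitted luciferase curves. Emax is relative to fenofibrate 100 μM (α), rosiglitazone 10 μM (γ) or GW501516 1 μM (δ).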

[2] = target: T2, hPPARdelta (Homo sapiens, UniProt Q03181); assay: Gal4-hPPARdelta transactivation assay in COS-7 cells (luciferase); type: cell-based
T2 construct: Gal4-hPPARδ(LBD); Gal4 (fusion partner); expressed in transfected cells; host or cells: COS-7 (monkey kidney)
T2 sequence (Q03181 211-439 limits assumed): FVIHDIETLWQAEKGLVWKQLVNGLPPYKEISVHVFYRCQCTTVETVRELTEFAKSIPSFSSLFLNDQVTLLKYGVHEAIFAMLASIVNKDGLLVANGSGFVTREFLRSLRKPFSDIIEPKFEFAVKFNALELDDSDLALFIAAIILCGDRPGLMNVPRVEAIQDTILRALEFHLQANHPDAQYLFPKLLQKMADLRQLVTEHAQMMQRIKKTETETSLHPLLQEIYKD
Method in brief: as §1

[3] = target: T3, hPPARgamma (Homo sapiens, UniProt P37231); assay: Gal4-hPPARgamma transactivation assay in COS-7 cells (luciferase); type: cell-based
T3 construct: Gal4-hPPARγ(LBD); Gal4 (fusion partner); expressed in transfected cells; host or cells: COS-7 (monkey kidney)
T3 sequence (P37231 238-503 limits assumed): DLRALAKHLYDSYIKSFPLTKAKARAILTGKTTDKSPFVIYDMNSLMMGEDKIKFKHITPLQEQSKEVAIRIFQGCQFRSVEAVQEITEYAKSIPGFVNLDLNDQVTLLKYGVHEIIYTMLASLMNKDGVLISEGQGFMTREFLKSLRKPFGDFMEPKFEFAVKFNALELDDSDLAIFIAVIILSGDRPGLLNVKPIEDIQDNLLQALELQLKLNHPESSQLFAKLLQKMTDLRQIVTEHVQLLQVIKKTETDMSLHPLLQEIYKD
Method in brief: as §1

[4] = system: brain amyloid-beta levels; assay: Alzheimer's disease model (APPPS1 mice): brain amyloid-beta levels by ELISA; type: in vivo, mouse; details: 60 days, +/- standard deviation
[5] = maximal relative activation vs reference, listed as cpd 14-1-2

SMILES: COC(c1ccc(OC(F)(F)F)cc1)C1CC1c1cc(C)c(OC(C)(C)C(=O)O)c(C)c1 (single isomer, unassigned) [Cpd 14-1-2, 2-(4-(2-(methoxy(4-(trifluoromethoxy)phenyl)methyl)cyclopropyl)-2,6-dimethylphenoxy)-2-methylpropanoic acid]
- EC50 ([1]; Gal4-hPPARα(LBD) transactivation): 12 nM
- Gal4-hPPARα(LBD) TOP (% ref) [1, 5]: 46 % ref
- EC50 ([2]; Gal4-hPPARδ(LBD) transactivation): 4 nM
- Gal4-hPPARδ(LBD) TOP (% ref) [2, 5]: 90 % ref
- EC50 ([3]; Gal4-hPPARγ(LBD) transactivation): 11 nM
- Gal4-hPPARγ(LBD) TOP (% ref) [3, 5]: 82 % ref
- amyloid-beta peptide Aβ 1-38, mean reduction from untreated APPPS1 mice ([4]; 1 mpk per day): 76 % +/− 16 % (**)
- amyloid-beta peptide Aβ 1-40, mean reduction from untreated APPPS1 mice ([4]; 1 mpk per day): 55 % +/− 17 % (**)
- amyloid-beta peptide Aβ 1-42, mean reduction from untreated APPPS1 mice ([4]; 1 mpk per day): 56 % +/− 19 % (**)
- amyloid-beta peptide Aβ 1-38, mean reduction from untreated APPPS1 mice ([4]; 10 mpk per day): 97 % +/− 3 % (**)
- amyloid-beta peptide Aβ 1-40, mean reduction from untreated APPPS1 mice ([4]; 10 mpk per day): 72 % +/− 14 % (**)
- amyloid-beta peptide Aβ 1-42, mean reduction from untreated APPPS1 mice ([4]; 10 mpk per day): 74 % +/− 14 % (**)
